In ChEMBL document CHEMBL3885861, “Open TG-GATES”:

Species on record: Rattus norvegicus
Test: Open TG-GATES - Regimen: Daily Repeat
Type: toxicity, organism-based, Sprague-Dawley
Parameters: regimen Daily Repeat, gender Male, age 6 weeks
Conditions: in vivo, po, 300 mg/kg, route gavage, dose level Middle; for APTT / Bas / Eos / Fbg / Hb / Ht / Lym / MCH / MCHC / MCV / Mono / Neu / PT / Plat / RBC / Ret / WBC: tissue Blood; for KIDNEY_L / KIDNEY_R / KIDNEY_TOTAL: tissue Kidney; for LIVER: tissue Liver; for A/G / ALP / ALT / AST / BUN / CRE / Ca / Cl / DBIL / GLC / IP / K / LDH / Na / PL / RALB / TBIL / TC / TG / TP / gamma-GTP: tissue Plasma

O=C(O)c1cc(/N=N/c2ccc(S(=O)(=O)Nc3ccccn3)cc2)ccc1O [SULFASALAZINE]
TERMINAL_BW (72 h, time 3 day): 236.9 g
APTT (72 h, time 3 day): 18.6 s
Bas (72 h, time 3 day): 0%
Eos (72 h, time 3 day): 1%
Fbg (72 h, time 3 day): 213 mg/dL
Hb (72 h, time 3 day): 13.2 g/dL
Ht (72 h, time 3 day): 38.4%
Lym (72 h, time 3 day): 81.6%
MCH (72 h, time 3 day): 21.8 pg
MCHC (72 h, time 3 day): 34.5%
MCV (72 h, time 3 day): 63.2 fL
Mono (72 h, time 3 day): 2.2%
Neu (72 h, time 3 day): 14%
PT (72 h, time 3 day): 12.5 s
Plat (72 h, time 3 day): 146.1 x10_4/uL
RBC (72 h, time 3 day): 607.4 x10_4/ul
Ret (72 h, time 3 day): 5.7%
WBC (72 h, time 3 day): 109.3 x10_2/uL
KIDNEY_L (72 h, time 3 day): 1 g
KIDNEY_R (72 h, time 3 day): 1 g
KIDNEY_TOTAL (72 h, time 3 day): 2 g
LIVER (72 h, time 3 day): 11.1 g
A/G (72 h, time 3 day): 1.5
ALP (72 h, time 3 day): 1050.4 IU/L
ALT (72 h, time 3 day): 37 IU/L
AST (72 h, time 3 day): 69.6 IU/L
BUN (72 h, time 3 day): 16.4 mg/dL
CRE (72 h, time 3 day): 0.4 mg/dL
Ca (72 h, time 3 day): 10.9 mg/dL
Cl (72 h, time 3 day): 103.2 meq/L
DBIL (72 h, time 3 day): 0.092 mg/dL
GLC (72 h, time 3 day): 202.6 mg/dL
IP (72 h, time 3 day): 6.8 mg/dL
K (72 h, time 3 day): 3.9 meq/L
LDH (72 h, time 3 day): 257.2 IU/L
Na (72 h, time 3 day): 141 meq/L
PL (72 h, time 3 day): 156.6 mg/dL
RALB (72 h, time 3 day): 3.4 g/dL
TBIL (72 h, time 3 day): 0.2 mg/dL
TC (72 h, time 3 day): 81 mg/dL
TG (72 h, time 3 day): 86.6 mg/dL
TP (72 h, time 3 day): 5.6 g/dL
gamma-GTP (72 h, time 3 day): 1.4 IU/L
TERMINAL_BW ([…], time 7 day): 264.7 g
TERMINAL_BW ([…], time 14 day): 309.2 g
TERMINAL_BW ([…], time 28 day): 365.3 g
APTT ([…], time 7 day): 18.5 s
Bas ([…], time 7 day): 0%
Eos ([…], time 7 day): 1%
Fbg ([…], time 7 day): 212.4 mg/dL
Hb ([…], time 7 day): 13.6 g/dL
Ht ([…], time 7 day): 39.4%
Lym ([…], time 7 day): 79.4%
MCH ([…], time 7 day): 21.4 pg
MCHC ([…], time 7 day): 34.5%
MCV ([…], time 7 day): 62 fL
Mono ([…], time 7 day): 2.6%
Neu ([…], time 7 day): 15.6%
PT ([…], time 7 day): 12.9 s
Plat ([…], time 7 day): 124.9 x10_4/uL
RBC ([…], time 7 day): 636.2 x10_4/ul
Ret ([…], time 7 day): 5.3%
WBC ([…], time 7 day): 123 x10_2/uL
APTT ([…], time 14 day): 18.5 s
Bas ([…], time 14 day): 0%
Eos ([…], time 14 day): 1%
Fbg ([…], time 14 day): 214.6 mg/dL
Hb ([…], time 14 day): 14.8 g/dL
Ht ([…], time 14 day): 41.7%
Lym ([…], time 14 day): 83.4%
MCH ([…], time 14 day): 21.2 pg
MCHC ([…], time 14 day): 35.4%
MCV ([…], time 14 day): 59.8 fL
Mono ([…], time 14 day): 2.6%
Neu ([…], time 14 day): 11.6%
PT ([…], time 14 day): 12.7 s
Plat ([…], time 14 day): 114.3 x10_4/uL
RBC ([…], time 14 day): 698 x10_4/ul
Ret ([…], time 14 day): 4.3%
WBC ([…], time 14 day): 109.2 x10_2/uL
APTT ([…], time 28 day): 18.2 s
Bas ([…], time 28 day): 0%
Eos ([…], time 28 day): 1%
Fbg ([…], time 28 day): 199 mg/dL
Hb ([…], time 28 day): 15.2 g/dL
Ht ([…], time 28 day): 42.2%
Lym ([…], time 28 day): 81.2%
MCH ([…], time 28 day): 20.1 pg
MCHC ([…], time 28 day): 35.9%
MCV ([…], time 28 day): 56 fL
Mono ([…], time 28 day): 2.4%
Neu ([…], time 28 day): 14.4%
PT ([…], time 28 day): 12.8 s
Plat ([…], time 28 day): 100.8 x10_4/uL
RBC ([…], time 28 day): 753.6 x10_4/ul
Ret ([…], time 28 day): 3%
WBC ([…], time 28 day): 88.7 x10_2/uL
KIDNEY_L ([…], time 7 day): 1.1 g
KIDNEY_R ([…], time 7 day): 1.1 g
KIDNEY_TOTAL ([…], time 7 day): 2.2 g
KIDNEY_L ([…], time 14 day): 1.2 g
KIDNEY_R ([…], time 14 day): 1.2 g
KIDNEY_TOTAL ([…], time 14 day): 2.4 g
KIDNEY_L ([…], time 28 day): 1.3 g
KIDNEY_R ([…], time 28 day): 1.3 g
KIDNEY_TOTAL ([…], time 28 day): 2.6 g
LIVER ([…], time 7 day): 11.8 g
LIVER ([…], time 14 day): 13 g
LIVER ([…], time 28 day): 13.6 g
A/G ([…], time 7 day): 1.7
ALP ([…], time 7 day): 838.8 IU/L
ALT ([…], time 7 day): 36.8 IU/L
AST ([…], time 7 day): 66.2 IU/L
BUN ([…], time 7 day): 15.8 mg/dL
CRE ([…], time 7 day): 0.4 mg/dL
Ca ([…], time 7 day): 10.7 mg/dL
Cl ([…], time 7 day): 103.6 meq/L
DBIL ([…], time 7 day): 0.088 mg/dL
GLC ([…], time 7 day): 213.8 mg/dL
IP ([…], time 7 day): 7 mg/dL
K ([…], time 7 day): 3.7 meq/L
LDH ([…], time 7 day): 186.6 IU/L
Na ([…], time 7 day): 140.8 meq/L
PL ([…], time 7 day): 144.4 mg/dL
RALB ([…], time 7 day): 3.5 g/dL
TBIL ([…], time 7 day): 0.1 mg/dL
TC ([…], time 7 day): 70.8 mg/dL
TG ([…], time 7 day): 83 mg/dL
TP ([…], time 7 day): 5.6 g/dL
gamma-GTP ([…], time 7 day): 1.4 IU/L
A/G ([…], time 14 day): 1.4
ALP ([…], time 14 day): 901 IU/L
ALT ([…], time 14 day): 37.2 IU/L
AST ([…], time 14 day): 64.8 IU/L
BUN ([…], time 14 day): 18 mg/dL
CRE ([…], time 14 day): 0.5 mg/dL
Ca ([…], time 14 day): 10.7 mg/dL
Cl ([…], time 14 day): 102.8 meq/L
DBIL ([…], time 14 day): 0.094 mg/dL
GLC ([…], time 14 day): 190.6 mg/dL
IP ([…], time 14 day): 7.1 mg/dL
K ([…], time 14 day): 3.6 meq/L
LDH ([…], time 14 day): 204.6 IU/L
Na ([…], time 14 day): 141 meq/L
PL ([…], time 14 day): 151.2 mg/dL
RALB ([…], time 14 day): 3.5 g/dL
TBIL ([…], time 14 day): 0.2 mg/dL
TC ([…], time 14 day): 70.4 mg/dL
TG ([…], time 14 day): 105.8 mg/dL
TP ([…], time 14 day): 6 g/dL
gamma-GTP ([…], time 14 day): 2 IU/L
A/G ([…], time 28 day): 1.5
ALP ([…], time 28 day): 668.8 IU/L
ALT ([…], time 28 day): 37.4 IU/L
AST ([…], time 28 day): 63.6 IU/L
BUN ([…], time 28 day): 18 mg/dL
CRE ([…], time 28 day): 0.5 mg/dL
Ca ([…], time 28 day): 10.3 mg/dL
Cl ([…], time 28 day): 103.8 meq/L
DBIL ([…], time 28 day): 0.082 mg/dL
GLC ([…], time 28 day): 214.2 mg/dL
IP ([…], time 28 day): 6.3 mg/dL
K ([…], time 28 day): 3.3 meq/L
LDH ([…], time 28 day): 134.4 IU/L
Na ([…], time 28 day): 141.8 meq/L
PL ([…], time 28 day): 128.6 mg/dL
RALB ([…], time 28 day): 3.5 g/dL
TBIL ([…], time 28 day): 0.1 mg/dL
TC ([…], time 28 day): 59.6 mg/dL
TG ([…], time 28 day): 92.6 mg/dL
TP ([…], time 28 day): 5.9 g/dL
gamma-GTP ([…], time 28 day): 1.2 IU/L
